Key:
[1] = Antagonist activity at P2Y12 receptor in human platelet-rich plasma assessed as inhibition of ADP-induced platelet aggregation incubated for 5 mins prior to ADP-challenge by light transmission-based assay
[2] = Antagonist activity at P2Y12 receptor in rat platelet-rich plasma assessed as inhibition of ADP-induced platelet aggregation incubated for 5 mins prior to ADP-challenge by light transmission-based assay

SMILES	IC50 [1] [nM]	IC50 [2] [nM]
CCCSc1nc(N[C@@H]2C[C@H]2c2ccc(F)c(F)c2)c2nnn([C@@H]3C[C@H](OCC(F)F)[C@@H](O)[C@H]3O)c2n1		31300
CCCSc1nc(N[C@@H]2C[C@H]2c2ccc(F)c(F)c2)c2nnn([C@@H]3C[C@H](OCC(F)CO)[C@@H](O)[C@H]3O)c2n1 (stereo not given in full)	4820	410
CCCSc1nc(N[C@@H]2C[C@H]2c2ccc(F)c(F)c2)c2nnn([C@@H]3C[C@H](OCC(O)CO)[C@@H](O)[C@H]3O)c2n1 (stereo not given in full)		148
CCCSc1nc(N[C@@H]2C[C@H]2c2ccc(F)c(F)c2)c2nnn([C@@H]3C[C@H](F)[C@@H](O)[C@H]3O)c2n1	330	110
CCCSc1nc(N[C@@H]2C[C@H]2c2ccc(F)c(F)c2)c2nnn([C@@H]3C=C[C@@H](O)[C@H]3O)c2n1	1970	850
CCCSc1nc(N[C@@H]2C[C@H]2c2ccc(F)c(F)c2)c2nnn(C3[C@H](O)[C@H](O)[C@@H](O)[C@H]3O)c2n1 (stereo not given in full)	1730	1250
CCCSc1nc(N[C@@H]2C[C@H]2c2ccc(F)c(F)c2)c2nnn([C@H]3[C@H](O)[C@H](O)[C@@H](OCCO)[C@@H]3O)c2n1	11300	1380
CCCSc1nc(N[C@@H]2C[C@H]2c2cccnc2)c2nnn([C@@H]3C[C@H](OCCO)[C@@H](O)[C@H]3O)c2n1		1520
CCCSc1nc(N[C@@H]2C[C@H]2c2ccc(F)c(F)c2)c2nnn([C@H]3[C@H](O)[C@H](O)[C@@H](O)[C@@H]3F)c2n1	1670	
CCCSc1nc(N[C@@H]2C[C@H]2c2ccc(F)c(F)c2)c2nnn([C@@H]3C[C@H](OCCO)[C@@H](O)[C@H]3O)c2n1 [AR-C126532XX]	500	

Other lines, results leading:

IC50 [1] [nM]	IC50 [2] [nM]	SMILES
220	290	CCCSc1nc(N[C@@H]2C[C@H]2c2ccc(F)c(F)c2)c2nnn([C@H]3[C@H](O)[C@H](O)[C@@H](O)[C@H]3F)c2n1
350	480	CCCSc1nc(N[C@@H]2C[C@H]2c2ccc(F)c(F)c2)c2nnn([C@H]3[C@H](O)[C@H](O)[C@@H](OCCO)[C@H]3F)c2n1
16300	650	CCCSc1nc(N[C@@H]2C[C@H]2c2ccc(F)c(F)c2)c2nnn([C@H]3[C@H](O)[C@H](O)[C@@H](O)[C@@H]3O)c2n1
	1810	CCCSc1nc(N[C@@H]2C[C@H]2c2scnc2C)c2nnn([C@@H]3C[C@H](OCCO)[C@@H](O)[C@H]3O)c2n1
280	160	CCCSc1nc(N[C@@H]2C[C@H]2c2ccc(Cl)s2)c2nnn([C@@H]3C[C@H](OCCO)[C@@H](O)[C@H]3O)c2n1
6350		CCCSc1nc(N[C@@H]2C[C@H]2c2ccc(F)c(F)c2)c2nnn([C@H]3[C@H](O)[C@H](O)[C@@H](OCCO)[C@@H]3F)c2n1
